Measured values as given in patent US20240277742A1, “TRANSLATION INHIBITOR WITHOUT OCCUPYING RIBOSOME RESOURCES AS ANTI-TUMOR DRUG” (CHI BIOTECH CO., LTD., priority 2022, published 2024).

Legend:
ribosomes = test: Sucrose density ultracentrifugation (polysome profiling) of drug-treated cell lysates; assay type: cell-based; details: methyl aurintricarboxylate 50 μg/mL; Harringtonin 10 μg/mL; Kasugamycin 10 μg/mL; Pateamine A 2 μM; Hippuristanol 1 μM
Experimental: Example 2 Proof that methyl aurintricarboxylate, Kasugamycin and Hippuristanol are all translation inhibitors without occupying ribosome resources Using methods well known to those skilled in the art, sucrose density ultracentrifugation (polysome profiling) was carried out to measure polysomes. Ultracentrifugation was performed on normal cell lysates and drug-treated cell lysates at 15-50% sucrose density gradient, the solution was pumped out slowly, and OD260 nm (260 nm Optical Density) was measured. In FIG. 2A, the black line, gray solid line and gray dashed line are the experimental curves of normal cells, cells treated with methyl aurintricarboxylate (concentration 50 μg/mL) and cells treated with Harringtonin (concentration 10 μg/mL) respectively. In FIG. 2B, the gray solid line, gray dashed line, and black dotted line are the experimental curves of cells treated with Kasugamycin (concentration 10 μg/mL), Pateamine A (concentration 2 μM), and Hippuristanol (concentration 1 μM), respectively. The peak heights of the curves are related to concentration.

[1] = test system: human breast cancer cell line MDA-MB-468; test: Transwell invasion assay; assay type: cell-based; details: MDA-MB-468, 50 nM, 24 h
Experimental: (§1) The human breast cancer cell line MDA-MB-468 was incubated and 50 nM Hippuristanol was then added. The well-known Transwell migration and invasion assays were carried out. 100,000 cells were added to the Transwell chamber, migration/invasion was carried out for 24 h, and crystal violet staining was performed.

A549 lung cancer cells = test: Nude-mouse lung cancer xenograft model, tumor diameter; assay type: in vivo, nude mice; details: gavage, daily dose 10 mg/kg, days 1, 3, 5
Experimental: Using techniques well known in the art, the tumor inhibition assay of Hippuristanol was carried out on a nude-mouse xenograft model. Nude mice were subcutaneously injected with A549 lung cancer cells. After the tumors formed, Hippuristanol was administered by gavage once at a daily dose of 10 mg/kg. On days 1, 3, and 5, the tumor diameters of the nude mice were measured in vivo.

[2] = test system: human breast cancer cell line MDA-MB-468; test: Transwell migration assay; assay type: cell-based; details: MDA-MB-468, 50 nM, 24 h
Experimental: as §1

H1299 lung cancer cells = test: Nude-mouse lung cancer xenograft model, tumor diameter; assay type: in vivo, nude mice; details: gavage once, 10 μg/kg, days 1, 3, 5
Experimental: Using techniques well known in the art, the tumor inhibition assay of Kasugamycin was carried out on a nude-mouse xenograft model. Nude mice were subcutaneously injected with H1299 lung cancer cells. After the tumors formed, kasugamycin was administered (by gavage) once at a dose of 10 μg/kg. On days 1, 3, and 5, the tumor diameters of the nude mice were measured in vivo.

[3] = test system: human breast cancer cell line MDA-MB-468; test: Cell proliferation by sulforhodamine B assay; assay type: cell-based; details: MDA-MB-468, 1 mg/L
Experimental: The human breast cancer cell line MDA-MB-468 was cultured, 1 mg/L Kasugamycin was then added, and cell proliferation was measured by the sulforhodamine B assay well known in the art (see Qin et al., BAPI promotes breast cancer cell proliferation and metastasis by deubiquitinating KLF5, Nature Communications 6:8471).

[4] = test system: cancer cells (A549 and H1299); test: Cell apoptosis, onset concentration comparison under the same conditions; assay type: cell-based; details: same experimental conditions as methyl aurintricarboxylate
Experimental: (§2) Cell migration, cell invasion, cell apoptosis, cell colony formation and cytotoxicity experiments were carried out using methods well known to those skilled in the art. […] (3) Cell apoptosis: Cells were fluorescently labeled using Annexin V, and the occurrence of cell apoptosis was tested under a fluorescence microscopy or on a flow cytometer. […] As the concentration of methyl aurintricarboxylate increases (final concentration: 10 μg/mL, 20 μg/mL, 40 μg/mL), the percentage of apoptosis of cancer cells increases. The percentage of apoptosis of cancer cells is positively correlated with the concentration of methyl aurintricarboxylate. Under the same experimental conditions, the onset concentration of aurintricarboxylic acid (0.25-0.5 mg/mL) is 12.5 to 25 times that of methyl aurintricarboxylate.

lung cancer A549 cells = details: cisplatin concentration adopted (50 μM), from reported procedure; cited from earlier work
H1299 cells [5] = test: Transwell migration assay; assay type: cell-based; details: H1299, 20 μg/mL, vs blank control
Experimental: (§3) Cell migration, cell invasion, cell apoptosis, cell colony formation and cytotoxicity experiments were carried out using methods well known to those skilled in the art. […] (1) Cell migration: The Transwell migration assay was carried out to test the migration ability of HBE, A549 and H1299 cells passing pores before and after treatment. The final concentration of methyl aurintricarboxylate was 20 μg/mL.

A549 cells [6] = test: Transwell migration assay; assay type: cell-based; details: A549, 20 μg/mL, vs blank control
Experimental: as §3

[7] = test system: ES-2 human ovarian cancer cell line; test: Apoptosis by Annexin V flow cytometry assay; assay type: cell-based
Experimental: (§4) Apoptosis assay was carried out using human normal fibroblasts (primary culture) as normal controls and ES-2 human ovarian cancer cell line as cancer cells. […] (c) Apoptosis was tested by Annexin V flow cytometry assay. In the figure, cells in the area Q1 are non-apoptotic cells, cells in the area Q3 are early apoptotic (the key area for observing apoptosis), and cells in the area Q2 are late apoptotic, including some necrotic cells.

[8] = test system: human normal fibroblasts (primary culture); test: Apoptosis by Annexin V flow cytometry assay; assay type: cell-based; details: 20 μg/mL to 50 μg/mL, 48 h
Experimental: as §4

H1299 cells [9] = test: Agar colony formation assay; assay type: cell-based; details: H1299, 20 μg/mL
Experimental: (§5) Cell migration, cell invasion, cell apoptosis, cell colony formation and cytotoxicity experiments were carried out using methods well known to those skilled in the art. […] (4) Cell colony formation: Agar colony formation assay was carried out on A549 and H1299 cells that were untreated and treated with methyl aurintricarboxylate (final concentration 20 μg/mL).

A549 cells [10] = test: Agar colony formation assay; assay type: cell-based; details: A549, 20 μg/mL
Experimental: as §5

[11] = test system: HCCLM3 liver cancer cells; test: Cell proliferation by CCK-8; assay type: cell-based; details: HCCLM3, 50 μg/mL or above, dose-effect relationship
Experimental: (§6) The Chinese liver cancer cell lines HCCLM3 and MHCC97H were taken, and cell proliferation was tested with the addition of methyl aurintricarboxylate. […] (b) A methyl aurintricarboxylate solution was added to the culture medium and the final concentrations of methyl aurintricarboxylate reached 10 μg/mL, 20 μg/mL, 50 μg/mL, 80 μg/mL and 120 μg/mL, respectively. The cells were further incubated for […] before sampling. (c) Cell proliferation was tested by CCK-8 (Cell Counting Kit-8).

[12] = test system: MHCC97H liver cancer cells; test: Cell proliferation by CCK-8; assay type: cell-based; details: 50 μg/mL or above, dose-effect relationship
Experimental: as §6

H1299 cells [13] = test: Transwell invasion assay; assay type: cell-based; details: H1299, 20 μg/mL, vs blank control
Experimental: (§7) Cell migration, cell invasion, cell apoptosis, cell colony formation and cytotoxicity experiments were carried out using methods well known to those skilled in the art. […] (2) Cell invasion: Transwell invasion assay was carried out on HBE, A549 and H1299 cells treated with or without methyl aurintricarboxylate (final concentration 20 μg/mL).

A549 cells [14] = test: Transwell invasion assay; assay type: cell-based; details: A549, 20 μg/mL, vs blank control
Experimental: as §7

HBE cells [15] = test: Transwell migration assay; assay type: cell-based, human; details: 20 μg/mL, vs blank control
Experimental: as §3

H1299 cells [16] = test: Cell apoptosis, Annexin V labelling; assay type: cell-based; details: H1299, 10, 20, 40 μg/mL, increases with concentration
Experimental: as §2

A549 cells [17] = test: Cell apoptosis, Annexin V labelling; assay type: cell-based; details: A549, 10, 20, 40 μg/mL, increases with concentration
Experimental: as §2

HBE cells [18] = test: Cell apoptosis, Annexin V labelling; assay type: cell-based, human; details: HBE, 10, 20, 40 μg/mL
Experimental: as §2

COC(=O)C[C@](O)(CCC(C)(C)O)C(=O)O[C@@H]1C(OC)=C[C@]23CCCN2CCc2cc4c(cc2[C@H]13)OCO4 [Harringtonin]
polysome profile (OD260 nm peaks of 40S, 60S, 1× and polysomes) (ribosomes): peak of 1× ribosomes is very high

C[C@H]1C[C@@]2(O[C@H]3C[C@H]4[C@@H]5CC[C@H]6C[C@H](O)CC[C@]6(C)[C@H]5[C@@H](O)C[C@]4(C)[C@H]3[C@@]2(C)O)OC1(C)C [Hippuristanol]
cell invasion [1]: effectively reduce
change in tumor diameter (A549 lung cancer cells): tumor shrink significantly
cell migration [2]: effectively reduce
polysome profile (OD260 nm peaks of 40S, 60S, 1× and polysomes) (ribosomes): peaks of 40S and 60S dominate

C[C@H]1O[C@H](O[C@H]2[C@H](O)[C@@H](O)[C@@H](O)[C@H](O)[C@@H]2O)[C@@H](N)C[C@@H]1NC(=N)C(=O)O [Kasugamycin]
change in tumor diameter (H1299 lung cancer cells): tumor shrink significantly
cell proliferation [3]: slows down significantly from day 4
polysome profile (OD260 nm peaks of 40S, 60S, 1× and polysomes) (ribosomes): peaks of 40S and 60S dominate

CC(/C=C/C(C)=C/[C@@H]1Cc2nc(cs2)[C@@H](C)C[C@@H](N)CC(=O)O[C@@H](C)C/C(C)=C/C=C\C(=O)O1)=C\CN(C)C [Pateamine A]
polysome profile (OD260 nm peaks of 40S, 60S, 1× and polysomes) (ribosomes): peaks of 40S and 60S dominate

O=C(O)C1=CC(=C(c2ccc(O)c(C(=O)O)c2)c2ccc(O)c(C(=O)O)c2)C=CC1=O [aurintricarboxylic acid]
onset concentration (apoptosis) [4]: 0.25 to 0.5 mg/mL

N.N.[Cl][Pt][Cl] [cisplatin]
inhibition of lung cancer A549 cells (lung cancer A549 cells): 80-90%

COC(=O)c1cc(/C(=C2/C=CC(=O)C(C(=O)O)=C2)c2ccc(O)c(C(=O)O)c2)ccc1O [methyl aurintricarboxylate, Methyl aurintricarboxylate]
cell migration (H1299 cells [5]): significantly inhibits the metastasis ability
cell migration (A549 cells [6]): significantly inhibits the metastasis ability
Percentage of late apoptotic and necrotic cells ([7]; 10 μg/mL, 48 h): 29.1%
late apoptotic+necrotic cells ([7]; 20 μg/mL or above, no obvious dose-effect relationship): do not increase significantly
Percentage of late apoptotic and necrotic cells ([7]; 20 μg/mL, 48 h): 17.2%
Percentage of late apoptotic and necrotic cells ([7]; 50 μg/mL, 48 h): 23.0%
Percentage of late apoptotic and necrotic cells ([7]; 120 μg/mL, 48 h): 22.6%
apoptosis ([7]; ES-2, 5 μg/mL, 48 h): significant effect on promoting apoptosis
early apoptosis ([7]; ES-2, 20 μg/mL, 48 h): 67.6%
apoptosis ([7]; ES-2, concentrations higher than 20 μg/mL, 48 h): almost all cells are completely apoptotic
effect on normal cell apoptosis [8]: basically no effect
number of colonies/1000 cells (H1299 cells [9]): significantly reduced
number of colonies/1000 cells (A549 cells [10]): significantly reduced
inhibition of cell proliferation [11]: obvious inhibitory effect
inhibition of cell proliferation [12]: obvious inhibitory effect
cell invasion (H1299 cells [13]): significantly inhibits the invasion ability
cell invasion (A549 cells [14]): significantly inhibits the invasion ability
cell migration (HBE cells [15]): little effect
cell apoptosis (H1299 cells [16]): will induce apoptosis
cell apoptosis (A549 cells [17]): will induce apoptosis
cell apoptosis (HBE cells [18]): will not induce apoptosis
